Source: patent US20080279957A1, “Immunomodulating compositions from bile” (Lorus Therapeutics Inc., priority 2000, published 2008)

How the values were obtained:
human PBMN = experiment: Direct effect of composition on cytokine production by PBMN (IL-1α, IL-1β, IL-6, IL-8, GM-CSF, IFN-γ, IL-4; ELISA); assay type: cell-based; conditions: LPS 1 μg, 24 hrs
[1] = system: human peripheral blood mononuclear cells (PBMN); experiment: Survival of PBMN, trypan blue dye exclusion; assay type: cell-based; conditions: Patient
Source text: At the end of this period, the number of surviving cells was estimated by trypan blue dye exclusion.

[2] = second LPS section, LPS 1 μg/well, 24 hrs
[3] = second LPS section, LPS 1 μg/well, 48 hrs
[4] = second LPS section, LPS 10 μg/well, 24 hrs
[5] = second LPS section, LPS 10 μg/well, 48 hrs

Substance Lipopolysaccharide [LPS] has a GM-CSF released (human PBMN) of 54 ± 20 pg/mL, an IFN-γ released (human PBMN) of 54 ± 94 pg/mL and an IL-1β released (human PBMN) of 965 ± 99 pg/mL. For the same substance, the IL-4 released (human PBMN) was <3.0 pg/mL, the IL-6 released (human PBMN) was 2016 ± 41 pg/mL and the IL-1α released (human PBMN; eight patient samples) was 315 ± 117 pg/mL. For the same substance, the “% viable” value ([1]; LPS 1 μg/well, 24 hrs) was 43%, the “No. of Live PBMN per Well by Trypan Blue” value ([1]; LPS 1 μg/well, 24 hrs) was 0.30 ×10^6 and the “% viable” value ([1]; LPS 1 μg/well, 48 hrs) was 40%. The “No. of Live PBMN per Well by Trypan Blue” value ([1]; LPS 1 μg/well, 48 hrs) was 0.28 ×10^6, the “% viable” value ([1]; LPS 10 μg/well, 24 hrs) was 36% and the “No. of Live PBMN per Well by Trypan Blue” value ([1]; LPS 10 μg/well, 24 hrs) was 0.25 ×10^6. For the same substance, the “% viable” value ([1]; LPS 10 μg/well, 48 hrs) was 18%, the “No. of Live PBMN per Well by Trypan Blue” value ([1]; LPS 10 μg/well, 48 hrs) was 0.13 ×10^6 and the “% viable” value [1, 2] was 46%. For the same substance, the “No. of Live PBMN per Well by Trypan Blue” value [1, 2] was 0.60 ×10^6, the “% viable” value [1, 3] was 41% and the “No. of Live PBMN per Well by Trypan Blue” value [1, 3] was 0.53 ×10^6. The “% viable” value [1, 4] was 12%, the “No. of Live PBMN per Well by Trypan Blue” value [1, 4] was 0.15 ×10^6 and the “% viable” value [1, 5] was 12%. The “No. of Live PBMN per Well by Trypan Blue” value [1, 5] was 0.15 ×10^6.
